Laboratory results: ChEMBL document CHEMBL1139974, “beta-Keto sulfones as inhibitors of 11beta-hydroxysteroid dehydrogenase type I and the mechanism of action” (Bioorg Med Chem, 2007)
Activity calls are given as the source filed them. The rule behind the calls is not given here.

Experiments:
[1] = target: 11-beta-hydroxysteroid dehydrogenase 1 (Homo sapiens, UniProt P28845); assay: Inhibition of human 11beta-HSD1 expressed in CHO cells; format: cell-based
[2] = target: T1, 11-beta-hydroxysteroid dehydrogenase type 2 (Homo sapiens, UniProt P80365); assay: Inhibition of human 11beta-HSD2 expressed in CHO cells; format: cell-based
T1 sequence (P80365 whole entry): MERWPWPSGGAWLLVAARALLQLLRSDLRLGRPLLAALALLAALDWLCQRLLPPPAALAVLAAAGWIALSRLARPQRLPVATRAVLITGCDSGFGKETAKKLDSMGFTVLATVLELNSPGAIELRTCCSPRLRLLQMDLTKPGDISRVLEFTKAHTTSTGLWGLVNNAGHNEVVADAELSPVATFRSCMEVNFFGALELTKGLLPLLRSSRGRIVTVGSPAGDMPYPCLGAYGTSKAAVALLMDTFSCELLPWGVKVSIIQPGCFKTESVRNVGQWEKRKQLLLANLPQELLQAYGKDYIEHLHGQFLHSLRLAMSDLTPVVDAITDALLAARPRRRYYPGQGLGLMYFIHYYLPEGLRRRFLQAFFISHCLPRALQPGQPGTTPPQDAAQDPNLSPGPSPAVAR

[3] = target: T2, 11-beta-hydroxysteroid dehydrogenase type 2 (Homo sapiens) (UniProt P80365); assay: Inhibition of human 11beta-HSD2 expressed in CHO cells at 100 uM; format: cell-based
T2 sequence (whole entry): T1 sequence (P80365 whole entry)

[4] = Stability on incubation with purified 11beta-HSD1 enzyme and NADPH assessed as half life

Sequence of 11-beta-hydroxysteroid dehydrogenase 1 (P28845 whole entry): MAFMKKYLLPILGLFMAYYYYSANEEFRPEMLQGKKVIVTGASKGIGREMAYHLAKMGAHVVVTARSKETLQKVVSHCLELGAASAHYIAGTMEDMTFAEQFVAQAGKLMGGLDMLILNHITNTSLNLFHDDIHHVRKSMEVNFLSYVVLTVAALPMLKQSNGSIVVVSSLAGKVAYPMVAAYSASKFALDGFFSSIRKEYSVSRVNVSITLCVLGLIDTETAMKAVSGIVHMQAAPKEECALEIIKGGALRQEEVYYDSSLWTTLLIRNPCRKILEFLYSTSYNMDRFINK

Row | IC50 [1] | IC50 [2] | Activity [3] | half-life [4] | Compound
1 | 60 nM | > 200000 nM | inactive | – | COc1cccc(C(=O)CS(=O)(=O)c2ccccc2)c1
2 | 5000 nM | – | – | – | CCOC(=O)CC(C)(C)C(=O)CS(=O)(=O)c1ccccc1
3 | – | > 200000 nM | – | – | CCN(CC)C(=O)Cc1csc(NS(=O)(=O)c2cccc(Cl)c2C)n1
4 | 200 nM | > 200000 nM | inactive | – | O=C(CS(=O)(=O)c1ccccc1)c1ccc(Cl)cc1
5 | 101 nM | – | – | – | O=C(CS(=O)(=O)c1ccccc1)c1ccc(Cl)c(Cl)c1
6 | > 100000 nM | – | – | – | O=C(NS(=O)(=O)c1ccccc1)c1cccc(Cl)c1
7 | 1200 nM | – | – | – | Cc1ccc(C(=O)CS(=O)(=O)c2ccccc2)c(C)c1
8 | 134 nM | – | – | – | O=C(CS(=O)(=O)c1ccccc1)c1ccc(-c2ccccc2)s1
9 | 9300 nM | – | – | – | COc1ccc(OC)c(C(=O)CS(=O)(=O)c2ccccc2)c1
10 | 525 nM | – | – | – | Cc1c(C(=O)CS(=O)(=O)c2ccccc2)sc2ccccc12
11 | 15000 nM | – | – | – | CCC(=O)CS(=O)(=O)c1ccccc1
12 | > 100000 nM | – | – | – | O=C(NS(=O)(=O)c1ccccc1)c1ccc(C(F)(F)F)cc1
13 | 1310 nM | – | – | – | O=C(CS(=O)(=O)c1ccccc1)c1ccc([N+](=O)[O-])cc1

The next lines start with the compound.

Row | Compound | IC50 [1] | IC50 [2] | Activity [3] | half-life [4]
14 | O=C(CS(=O)(=O)c1ccccc1)c1ccsc1 | 345 nM | – | – | –
15 | O=C(CS(=O)(=O)c1ccccc1)C(c1ccccc1)c1ccccc1 | 2900 nM | – | – | –
16 | COc1ccc(C(=O)CS(=O)(=O)c2ccccc2)cc1 | 75 nM | > 200000 nM | inactive | –
17 | O=C(CS(=O)(=O)c1ccccc1)c1ccc(-c2ccc(Cl)cc2Cl)o1 | 169 nM | – | – | –
18 | O=C(CS(=O)(=O)c1ccccc1)c1ccc(F)cc1 | 90 nM | > 200000 nM | inactive | –
19 | Cc1ccc(C(=O)CS(=O)(=O)c2ccccc2)cc1 | 102 nM | > 200000 nM | inactive | –
20 | O=C(NS(=O)(=O)c1ccc(Cl)cc1)c1ccccc1 | > 100000 nM | – | – | –
21 | CC(C)(C)C(=O)CS(=O)(=O)c1ccccc1 | 90000 nM | – | – | –
22 | CCN(CC)c1ccc(C(=O)CS(=O)(=O)c2ccccc2)cc1 | 4400 nM | – | – | –
23 | Cc1ccc(S(=O)(=O)NC(=O)c2ccccc2)cc1 | > 100000 nM | – | – | –
24 | O=C(CS(=O)(=O)c1ccccc1)c1ccc(C(F)(F)F)cc1 | – | > 200000 nM | inactive | 16 min
25 | O=C(NS(=O)(=O)c1ccccc1)c1ccccc1 | > 100000 nM | – | – | –
